MIC, Activity and Ratio data for 13 compounds are collected here from ChEMBL document CHEMBL1909639, “Synthesis, stereochemistry and in vitro antimicrobial evaluation of novel 2-[(2,4-diaryl-3-azabicyclo[3.3.1]nonan-9-ylidene)hydrazono]-4-phenyl-2,3-dihydrothiazoles” (2011).

Structures are written as SMILES. ≈ marks a conversion by molar mass, not a printed value. Calls of active or inactive are those of the source. The calls are words filed in the database; no cut-off is given here.

Test [1] has as its system Staphylococcus aureus. Put plainly: Antibacterial activity against Staphylococcus aureus ATCC 25825 after 24 hrs by twofold serial dilution method. The format is functional. The following applies: ATCC 25825, 24 h.
The test system of test [2] is Bacillus subtilis. Put plainly: Antibacterial activity against Bacillus subtilis ATCC 451 after 24 hrs by twofold serial dilution method. It is filed as functional. The conditions noted are these: ATCC 451, 24 h.
The subject of test [3] is Salmonella typhi. Put plainly: Antibacterial activity against Salmonella typhi ATCC 24915 after 24 hrs by twofold serial dilution method. The format is functional, Salmonella enterica subsp. enterica serovar Typhi. The conditions noted are these: Salmonella enterica, ATCC 24915, 24 h.
The test system of test [4] is Klebsiella pneumoniae. Put plainly: Antibacterial activity against Klebsiella pneumoniae ATCC 15490 after 24 hrs by twofold serial dilution method. It is filed as functional. The following applies: ATCC 15490, 24 h.
Test [5] has as its system Cryptococcus neoformans. Put plainly: Antifungal activity against Cryptococcus neoformans ATCC 3312 after 72 to 96 hrs by twofold serial dilution method. The format is functional.
Test [6] relates to Candida albicans. Put plainly: Antifungal activity against Candida albicans ATCC 3122 by twofold serial dilution method. It is filed as functional.
The subject of test [7] is Rhizopus. Put plainly: Antifungal activity against Rhizopus sp. ATCC 2915 after 72 to 96 hrs by twofold serial dilution method. It is filed as functional.
Test [8] relates to Aspergillus niger. Put plainly: Antifungal activity against Aspergillus niger ATCC 598 after 72 to 96 hrs by twofold serial dilution method. It is filed as functional.
The test system of test [9] is Escherichia coli. Put plainly: Antibacterial activity against Escherichia coli ATCC 25835 at 200 ug/mL after 24 hrs by twofold serial dilution method. It is filed as functional, organism-based.
In test [10] the test system is Aspergillus flavus. Put plainly: Antifungal activity against Aspergillus flavus ATCC 485 at 200 ug/mL after 72 to 96 hrs by twofold serial dilution method. The format is functional, organism-based.
Test [11] deals with Escherichia coli. Put plainly: Antibacterial activity against Escherichia coli ATCC 25835 after 24 hrs by twofold serial dilution method. The conditions noted are these: ATCC 25835, 24 h. It is filed as functional.
Test [12] has as its system Aspergillus flavus. Put plainly: Antifungal activity against Aspergillus flavus ATCC 485 after 72 to 96 hrs by twofold serial dilution method. It is filed as functional.
The test system of test [13] is Klebsiella pneumoniae. Put plainly: Antibacterial activity against Klebsiella pneumoniae ATCC 15490 at 200 ug/mL after 24 hrs by twofold serial dilution method. It is filed as functional, organism-based.
Test [14] concerns Bacillus subtilis. Put plainly: Antibacterial activity against Bacillus subtilis ATCC 451 at 200 ug/mL after 24 hrs by twofold serial dilution method. It is filed as functional, organism-based.
Test [15] concerns Salmonella typhi. Put plainly: Antibacterial activity against Salmonella typhi ATCC 24915 at 200 ug/mL after 24 hrs by twofold serial dilution method. It is filed as functional, organism-based. The conditions noted are these: Salmonella enterica subsp. enterica serovar Typhi.
The test system of test [16] is Cryptococcus neoformans. Put plainly: Antifungal activity against Cryptococcus neoformans ATCC 3312 at 200 ug/mL after 72 to 96 hrs by twofold serial dilution method. The format is functional, organism-based.
The test system of test [17] is Rhizopus. Put plainly: Antifungal activity against Rhizopus sp. ATCC 2915 at 200 ug/mL after 72 to 96 hrs by twofold serial dilution method. The format is functional, organism-based.
In test [18] the test system is Escherichia coli. Put plainly: Ratio of compound MIC over streptomycin MIC for Escherichia coli ATCC 25835. The format is functional.

Broadly, the MIC is the lowest concentration that inhibits growth of the organism. Higher therefore signals a need for much substance.

As to `c1ccc(-c2cs/c(=N\N=C3\C4CCCC3[C@H](c3ccccc3)N[C@@H]4c3ccccc3)[nH]2)cc1`, the MIC in [1] was 25 µg/mL (≈ 53.8 µM); in [2], 200 µg/mL (≈ 430 µM); in test [3] it was 100 µg/mL (≈ 215 µM); in test [4] it was 100 µg/mL (≈ 215 µM); in test [5], 100 µg/mL (≈ 215 µM); in test [6], 200 µg/mL (≈ 430 µM). Further, the MIC in test [7] was 200 µg/mL (≈ 430 µM); in [8], 50 µg/mL (≈ 108 µM). In addition, the outcome in [9] and in [10] was inactive.
Consider `Fc1cccc([C@H]2N[C@@H](c3cccc(F)c3)C3CCCC2/C3=N/N=c2\scc(-c3ccccc3)n2-c2ccccc2)c1`, for which the MIC was 50 µg/mL (≈ 86.7 µM) in test [1]; 100 µg/mL (≈ 173 µM) in test [2]; 12.5 µg/mL (≈ 21.7 µM) in test [3]; 12.5 µg/mL (≈ 21.7 µM) in test [11]; 100 µg/mL (≈ 173 µM) in test [4]; 200 µg/mL (≈ 347 µM) in test [5]. In addition, the MIC was 12.5 µg/mL (≈ 21.7 µM) in test [6], 100 µg/mL (≈ 173 µM) in test [7], 25 µg/mL (≈ 43.3 µM) in test [8] and 200 µg/mL (≈ 347 µM) in [12].
As to `Fc1ccc([C@H]2N[C@@H](c3ccc(F)cc3)C3CCCC2/C3=N/N=c2/[nH]c(-c3ccccc3)cs2)cc1`, the MIC in [1] came to 200 µg/mL (≈ 400 µM); in test [2], 12.5 µg/mL (≈ 25 µM); in test [3], 50 µg/mL (≈ 99.9 µM); in test [11], 50 µg/mL (≈ 99.9 µM); in [4], 12.5 µg/mL (≈ 25 µM); in [5] it was 100 µg/mL (≈ 200 µM). In addition, the minimal inhibitory concentration (MIC) was 100 µg/mL (≈ 200 µM) in test [6], 50 µg/mL (≈ 99.9 µM) in test [7], 12.5 µg/mL (≈ 25 µM) in test [8] and 6.25 µg/mL (≈ 12.5 µM) in test [12].
For the compound `CN[C@@H]1[C@H](O[C@H]2[C@H](O[C@H]3[C@H](O)[C@@H](O)[C@H](N=C(N)N)[C@@H](O)[C@@H]3N=C(N)N)O[C@@H](C)[C@]2(O)C=O)O[C@@H](CO)[C@H](O)[C@H]1O` [STREPTOMYCIN], the MIC in [1] stood at 50 µg/mL (≈ 86 µM); in test [2], 12.5 µg/mL (≈ 21.5 µM); in test [3], 50 µg/mL (≈ 86 µM); in [11] it was 12.5 µg/mL (≈ 21.5 µM); in [4], 25 µg/mL (≈ 43 µM).
With `c1ccc(-c2cs/c(=N\N=C3\C4CCCC3[C@H](c3ccccc3)N[C@@H]4c3ccccc3)n2-c2ccccc2)cc1`, the MIC was found to be 25 µg/mL (≈ 46.2 µM) in test [1]; 100 µg/mL (≈ 185 µM) in test [2]; 100 µg/mL (≈ 185 µM) in [3]; 200 µg/mL (≈ 370 µM) in test [11]; 50 µg/mL (≈ 92.5 µM) in [5]; 12.5 µg/mL (≈ 23.1 µM) in test [6]. Besides, the MIC in [7] was 200 µg/mL (≈ 370 µM); in [8], 200 µg/mL (≈ 370 µM); in [12], 100 µg/mL (≈ 185 µM). The result in test [13] was inactive.
On to `COc1ccc([C@H]2N[C@@H](c3ccc(OC)cc3)C3CCCC2/C3=N/N=c2/[nH]c(-c3ccccc3)cs2)cc1`, for which the MIC came to 25 µg/mL (≈ 47.6 µM) in test [1]; 100 µg/mL (≈ 191 µM) in test [11]; 200 µg/mL (≈ 381 µM) in test [4]; 12.5 µg/mL (≈ 23.8 µM) in test [5]; 100 µg/mL (≈ 191 µM) in test [6]; 100 µg/mL (≈ 191 µM) in [7]. In addition, the MIC came out at 25 µg/mL (≈ 47.6 µM) in test [8] and 12.5 µg/mL (≈ 23.8 µM) in [12]. Also, the outcome in test [14] and in [15] was inactive.
Regarding `Clc1ccc([C@H]2N[C@@H](c3ccc(Cl)cc3)C3CCCC2/C3=N/N=c2\scc(-c3ccccc3)n2-c2ccccc2)cc1`, the MIC was 25 µg/mL (≈ 41 µM) in test [1]; 12.5 µg/mL (≈ 20.5 µM) in [2]; 25 µg/mL (≈ 41 µM) in [3]; 100 µg/mL (≈ 164 µM) in test [11]; 50 µg/mL (≈ 82 µM) in test [5]; 100 µg/mL (≈ 164 µM) in [6]. In addition, the MIC in test [7] amounted to 6.25 µg/mL (≈ 10.3 µM); in test [8], 25 µg/mL (≈ 41 µM); in test [12] it was 100 µg/mL (≈ 164 µM). Besides, the outcome in test [13] was inactive.
With `Fc1ccc([C@H]2N[C@@H](c3ccc(F)cc3)C3CCCC2/C3=N/N=c2\scc(-c3ccccc3)n2-c2ccccc2)cc1`, the minimum inhibitory concentration (MIC) came out at 12.5 µg/mL (≈ 21.7 µM) in test [1]; 6.25 µg/mL (≈ 10.8 µM) in test [2]; 50 µg/mL (≈ 86.7 µM) in [3]; 100 µg/mL (≈ 173 µM) in [11]; 100 µg/mL (≈ 173 µM) in test [4]; 12.5 µg/mL (≈ 21.7 µM) in test [6]. In addition, the MIC in test [7] is 50 µg/mL (≈ 86.7 µM); in test [8], 100 µg/mL (≈ 173 µM); in test [12], 200 µg/mL (≈ 347 µM). Further, in test [16], the result was inactive.
Regarding `Cc1ccc([C@H]2N[C@@H](c3ccc(C)cc3)C3CCCC2/C3=N/N=c2/[nH]c(-c3ccccc3)cs2)cc1`, the MIC in test [1] came to 200 µg/mL (≈ 406 µM); in test [2] it was 50 µg/mL (≈ 101 µM); in [3], 200 µg/mL (≈ 406 µM); in test [11] it was 12.5 µg/mL (≈ 25.4 µM); in [4], 200 µg/mL (≈ 406 µM); in test [6], 200 µg/mL (≈ 406 µM). Moreover, the figures for the MIC in test [7], in test [8] and in [12] were 12.5 µg/mL (≈ 25.4 µM), 50 µg/mL (≈ 101 µM) and 200 µg/mL (≈ 406 µM), respectively. In addition, the result in test [16] was inactive.
On to `C[C@@H]1[C@H](O)[C@@H](C)/C=C/C=C/C=C/C=C/C=C/C=C/C=C/[C@H](O[C@@H]2O[C@H](C)[C@@H](O)[C@H](N)[C@@H]2O)C[C@@H]2O[C@](O)(C[C@@H](O)C[C@@H](O)[C@H](O)CC[C@@H](O)C[C@@H](O)CC(=O)O[C@H]1C)C[C@H](O)[C@H]2C(=O)O` [AMPHOTERICIN B], for which the MIC in test [5] was 25 µg/mL (≈ 27.1 µM); in test [6], 25 µg/mL (≈ 27.1 µM); in [7], 25 µg/mL (≈ 27.1 µM); in test [8], 50 µg/mL (≈ 54.1 µM); in test [12], 50 µg/mL (≈ 54.1 µM).
With `Clc1ccc([C@H]2N[C@@H](c3ccc(Cl)cc3)C3CCCC2/C3=N/N=c2/[nH]c(-c3ccccc3)cs2)cc1`, the MIC in [1] turned out to be 25 µg/mL (≈ 46.9 µM); in test [2], 25 µg/mL (≈ 46.9 µM); in [3], 50 µg/mL (≈ 93.7 µM); in [11], 100 µg/mL (≈ 187 µM); in [4], 100 µg/mL (≈ 187 µM); in test [5], 200 µg/mL (≈ 375 µM). Moreover, the MIC in test [6] stood at 200 µg/mL (≈ 375 µM); in test [7], 50 µg/mL (≈ 93.7 µM); in test [8], 25 µg/mL (≈ 46.9 µM); in test [12], 25 µg/mL (≈ 46.9 µM).
In the case of `Fc1cccc([C@H]2N[C@@H](c3cccc(F)c3)C3CCCC2/C3=N/N=c2/[nH]c(-c3ccccc3)cs2)c1`, the MIC in [1] is 12.5 µg/mL (≈ 25 µM); in test [3], 200 µg/mL (≈ 400 µM); in test [11] it was 25 µg/mL (≈ 49.9 µM); in [4], 25 µg/mL (≈ 49.9 µM); in test [5], 50 µg/mL (≈ 99.9 µM); in test [6], 100 µg/mL (≈ 200 µM). Further, the minimal inhibitory concentration (MIC) turned out to be 200 µg/mL (≈ 400 µM) in test [8] and 100 µg/mL (≈ 200 µM) in test [12]. The result in test [14] and in test [17] was inactive.
In the case of `Clc1ccccc1[C@H]1N[C@@H](c2ccccc2Cl)C2CCCC1/C2=N/N=c1/[nH]c(-c2ccccc2)cs1`, the MIC in test [1] stood at 100 µg/mL (≈ 187 µM); in [2], 12.5 µg/mL (≈ 23.4 µM); in [3] it was 25 µg/mL (≈ 46.9 µM); in test [11], 6.25 µg/mL (≈ 11.7 µM); in [4] it was 100 µg/mL (≈ 187 µM); in [5], 6.25 µg/mL (≈ 11.7 µM). Besides, the MIC in [6] worked out at 25 µg/mL (≈ 46.9 µM); in [7] it was 100 µg/mL (≈ 187 µM); in [8], 100 µg/mL (≈ 187 µM); in test [12], 50 µg/mL (≈ 93.7 µM). Further, the Ratio in test [18] was 1.
